According to patent US7098332B2, “5,8-Dihydro-6H-pyrido[2,3-d]pyrimidin-7-ones” (Hoffmann-La Roche Inc., priority 2002, dated 2006):

Key:
FGFR = target: T1, FGFR; test: FGFR kinase HTRF assay; format: biochemical; settings: 10 μM ATP
T1 construct: fused on or other part: GST tag
Method: (§1) To determine inhibition of KDR, FGFR, EGFR, and PDGFR activity, kinase assays were conducted using an HTRF (Homogeneous Time Resolved Fluorescence) assay. This assay is described in A. J. Kolb et. al., Drug Discovery Today, 1998, 3(7), p 333.
(§2) Kinase activity assays were performed in 96-well polypropylene plates (Falcon) with a total volume of 90 μL in each well. Each well contained 1 μM KDR substrate (Biotin-EEEEYFELVAKKKK), 1 nM activated KDR, and a test compound with one of 8 assay concentrations ranging from 100 μM to […] (1:5 serial dilution). The kinase activity assay was done in the presence of 100 mM HEPES, pH 7.4, 1 mM DTT, 0.1 mM Na2VO4, 25 mM MgCl2, 50 mM NaCl (from KDR stock solution), 1% DMSO (from compound), 0.3 mM ATP (at Km concentration) and 0.02% BSA. The reaction was incubated at 37° C. for 30 minutes. To stop the KDR reaction, 72 μL of reaction mixture was transferred into a STOP plate containing 18 μL of revelation buffer (20 mM EDTA, 50 mM HEPES, pH 7.4, 0.02% BSA, 10 nM Eu-labelled anti-pY antibody (final conc. 2 nM), and 100 nM streptavidin (final conc. 20 nM)). After mixing, 35 μL of solution was transferred into duplicate wells of a 384-well black plate (Costar), and read at 615/665 nm on a Wallac Victor 5 reader.
FGFR, EGFR, and PDGFR activity assays were carried out as described above for the KDR activity assay with the following differences. GST-tagged FGFR enzyme was activated at room temperature for 1 hour in the following activation buffer: 100 mM HEPES, pH 7.4, 50 mM NaCl, 20 mM MgCl2, and 4 mM ATP. The kinase activity assay was performed with 1 μM substrate (Biotin-EEEEYFELV), 1.5 nM activated FGFR, and test compound in the presence of 100 mM HEPES, 1 mM DTT, 0.4 mM MgCl2, 0.4 mM MnCl2, 50 mM NaCl, 1% DMSO, 10 μM ATP (Km=8.5 μM for FGFR), 0.1 mM Na2VO4, and 0.02% BSA, in a total volume of 90 μL. The rest of the assay was performed in the same manner as KDR assay.
(§3) Compound IC50 values were determined from duplicate sets of data, and calculated by using Excel and fitting data to equation Y=[(a−b)/{1+(X/c)^d]+b, where a and b are enzyme activity in the presence of no test inhibitor compound and an infinite amount of inhibitor test compound, respectively, c is the IC50 and d is the hill constant of the compound response. The IC50 value is the concentration of test compound that reduces by 50% the enzyme activity under the test conditions described.

PDGFR = PDGFR kinase HTRF assay; format: biochemical; settings: 2.3 μM ATP
Method: as §1, §2
(§4) The PDGFR kinase activity assay was performed with 1 μM substrate (Biotin-EEEEYFELV), 1.0 nM PDGFR, test compounds, 100 mM HEPES, pH 7.4, 1 mM DTT, 5 mM MgCl2, 2 mM MnCl2, 1% DMSO, 2.3 μM ATP (Km for PDGFR), 0.1 mM Na2VO4, and 0.02% BSA. The rest of the assay was performed in the same manner as the KDR assay.
as §3

EGFR = EGFR (Homo sapiens, UniProt P00533); test: EGFR kinase HTRF assay; format: biochemical; settings: 0.5 μM ATP
Method: as §1, §2
as §4, with “EGFR” for “PDGFR”, “1.5” for “1.0”, “EGFR,” for “PDGFR,”, “0.5” for “2.3”, “EGFR),” for “PDGFR),”
as §3

KDR = target: T2, KDR (Homo sapiens, UniProt P35968); test: KDR kinase HTRF assay; format: biochemical; settings: 0.3 mM ATP
T2 construct: EEE tag
Method: as §1
Prior to kinase reaction, recombinant EEE-tagged KDR was activated in the presence of activation buffer (50 mM HEPES, pH 7.4, 1 mM DTT, 10% glycerol, 150 mM NaCl, 0.1 mM EDTA, 26 mM MgCl2, and 4 mM ATP). The enzyme was incubated at 4° C. for 1 hour.
as §2, §3

[1] = tested on: Human umbilical vein endothelial cells; test: VEGF-stimulated HUVEC proliferation assay (BrdU); format: cell-based; settings: VEGF 20 ng per mL, BrdU labeling, read-out: HUVEC/VEFG IC50
Method: (§5) The antiproliferative activity of test-compounds of this invention in cell-based assays was evaluated by BrdU assay using the BrdU kit (Roche Biochemicals 1-647-229). Human umbilical vein endothelial cells (Clonetics CC-2519) were cultured in EGM-2 (Clonetics CC-3162) medium and seeded at 10000 cells per well in a volume of 200 μL of EGM-2 (Clonetics CC-3162) media in a 96-well flat bottom plates (Costar 3595) overnight. After 24 hours of growth at 37° C. with 5% CO2, the incubation media was removed slowly by aspiration and the content of each well was washed with 300 μL pre-warmed EBM-2 (Clonetics CC-3156) containing 50 μg per mL of gentamycin and 50 ng per mL of amphotercin-B (Clonetics CC-4083). […]
(§6) After 24 hour exposure to the test compounds, the cells were labeled with BrdU (Roche Biochemicals 1-647-229), by adding 20 μL per well of BrdU labeling reagent that has been diluted (1:100) in serum starvation medium. […] The plates were read at 450 nm with reference wavelength of 650 nm. The percent inhibition for each test compound was calculated by subtracting the absorbency of the blank (no cells) wells from all wells, then subtracting the division of the average absorbency of each test duplicate by the average of the controls from 1. […] The IC50 is determined from the linear regression of a plot of the logarithm of the concentration versus percent inhibition.

[2] = tested on: Human umbilical vein endothelial cells; test: FGF-stimulated HUVEC proliferation assay (BrdU); format: cell-based; settings: FGF 5 ng per mL, BrdU labeling, read-out: HUVEC/bFGFR IC50
Method: as §5, §6

Chain of EGFR (P00533 25-1210, species assumed): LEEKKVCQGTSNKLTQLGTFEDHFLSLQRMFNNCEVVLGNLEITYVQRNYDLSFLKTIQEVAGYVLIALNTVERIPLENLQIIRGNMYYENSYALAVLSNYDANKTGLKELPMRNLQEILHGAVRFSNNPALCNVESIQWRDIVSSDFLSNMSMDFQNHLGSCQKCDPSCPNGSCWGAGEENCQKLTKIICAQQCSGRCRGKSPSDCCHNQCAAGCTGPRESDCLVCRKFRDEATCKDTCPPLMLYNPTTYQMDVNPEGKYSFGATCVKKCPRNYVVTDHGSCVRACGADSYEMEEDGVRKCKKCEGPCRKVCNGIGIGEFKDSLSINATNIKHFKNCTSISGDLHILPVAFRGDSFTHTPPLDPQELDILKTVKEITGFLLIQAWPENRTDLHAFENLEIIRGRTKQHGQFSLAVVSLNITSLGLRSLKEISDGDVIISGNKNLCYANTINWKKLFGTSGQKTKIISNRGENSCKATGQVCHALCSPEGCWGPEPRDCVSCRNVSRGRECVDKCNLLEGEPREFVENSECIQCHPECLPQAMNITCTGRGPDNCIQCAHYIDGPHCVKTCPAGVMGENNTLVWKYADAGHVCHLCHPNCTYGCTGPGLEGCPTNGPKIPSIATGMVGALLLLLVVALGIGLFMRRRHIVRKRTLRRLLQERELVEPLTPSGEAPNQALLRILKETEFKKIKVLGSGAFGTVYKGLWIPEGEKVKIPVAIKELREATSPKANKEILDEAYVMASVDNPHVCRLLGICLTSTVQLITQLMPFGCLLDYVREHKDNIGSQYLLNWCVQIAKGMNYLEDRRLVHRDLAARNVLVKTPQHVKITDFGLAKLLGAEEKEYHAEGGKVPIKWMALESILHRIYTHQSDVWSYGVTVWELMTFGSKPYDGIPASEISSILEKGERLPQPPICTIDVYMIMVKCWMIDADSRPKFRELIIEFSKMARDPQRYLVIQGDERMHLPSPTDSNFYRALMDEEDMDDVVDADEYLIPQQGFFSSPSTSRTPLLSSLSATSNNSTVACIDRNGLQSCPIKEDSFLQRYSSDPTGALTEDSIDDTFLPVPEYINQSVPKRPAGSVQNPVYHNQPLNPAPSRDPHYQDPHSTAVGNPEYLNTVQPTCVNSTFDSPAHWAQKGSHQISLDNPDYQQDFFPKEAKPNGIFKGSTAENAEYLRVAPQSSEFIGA
T2 sequence (P35968 20-1356): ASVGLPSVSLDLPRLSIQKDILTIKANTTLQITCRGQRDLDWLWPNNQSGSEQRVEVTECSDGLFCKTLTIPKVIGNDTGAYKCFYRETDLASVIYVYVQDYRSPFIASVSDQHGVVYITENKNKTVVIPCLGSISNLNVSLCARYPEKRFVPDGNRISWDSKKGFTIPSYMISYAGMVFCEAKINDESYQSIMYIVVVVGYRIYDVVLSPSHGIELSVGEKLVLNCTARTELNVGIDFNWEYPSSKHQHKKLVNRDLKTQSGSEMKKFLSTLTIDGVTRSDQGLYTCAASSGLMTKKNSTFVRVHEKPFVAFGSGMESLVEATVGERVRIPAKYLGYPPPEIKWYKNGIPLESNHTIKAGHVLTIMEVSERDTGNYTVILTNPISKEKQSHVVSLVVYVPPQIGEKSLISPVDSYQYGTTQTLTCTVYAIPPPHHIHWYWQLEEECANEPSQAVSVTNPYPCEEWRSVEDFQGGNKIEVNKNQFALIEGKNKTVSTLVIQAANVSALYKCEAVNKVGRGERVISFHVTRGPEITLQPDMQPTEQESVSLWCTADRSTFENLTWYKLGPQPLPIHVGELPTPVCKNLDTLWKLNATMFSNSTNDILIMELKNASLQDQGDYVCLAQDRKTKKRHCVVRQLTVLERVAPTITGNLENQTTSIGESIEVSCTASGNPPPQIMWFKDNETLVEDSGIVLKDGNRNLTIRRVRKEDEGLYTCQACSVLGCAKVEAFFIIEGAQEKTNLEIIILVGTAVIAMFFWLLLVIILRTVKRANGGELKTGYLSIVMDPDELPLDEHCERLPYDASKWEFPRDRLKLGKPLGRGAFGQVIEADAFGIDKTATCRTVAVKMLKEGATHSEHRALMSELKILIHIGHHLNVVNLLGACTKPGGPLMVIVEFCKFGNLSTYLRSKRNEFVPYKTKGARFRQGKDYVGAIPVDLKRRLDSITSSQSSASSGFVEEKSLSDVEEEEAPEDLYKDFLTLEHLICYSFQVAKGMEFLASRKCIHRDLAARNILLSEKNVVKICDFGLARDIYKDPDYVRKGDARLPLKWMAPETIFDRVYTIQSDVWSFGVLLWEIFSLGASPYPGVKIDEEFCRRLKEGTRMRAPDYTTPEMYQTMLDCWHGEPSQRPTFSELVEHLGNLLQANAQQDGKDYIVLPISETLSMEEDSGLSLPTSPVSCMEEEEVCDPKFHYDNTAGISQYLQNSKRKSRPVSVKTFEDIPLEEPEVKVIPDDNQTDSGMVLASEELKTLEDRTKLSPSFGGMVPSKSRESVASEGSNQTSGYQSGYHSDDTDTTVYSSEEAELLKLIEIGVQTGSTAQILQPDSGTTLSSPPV

SMILES | IC50 (FGFR) [µM] | IC50 (PDGFR) [µM] | IC50 (EGFR) [µM] | IC50 (KDR) [µM] | IC50 [1] [µM] | IC50 [2] [µM]
COc1ccc(C2Cc3cnc(Nc4ccc(OC)nc4)nc3N(c3ccccc3)C2=O)cc1 (stereo not drawn) [Example 12d, 6-(4-Methoxy-phenyl)-2-(6-methoxy-pyridin-3-ylamino)-8-phenyl-5,8-dihydro-6H-pyrido[2,3-d]pyrimidine-7-one] | < 10 | < 10 | < 10 | < 10 |  | 
O=C1C(c2ccncc2)Cc2cnc(Nc3ccccc3)nc2N1c1ccccc1 (stereo not drawn) [Example 9c, 8-Phenyl-2-phenylamino-6-pyridin-4-yl-5,8-dihydro-6H-pyrido[2,3-d]pyrimidin-7-one] | > 10 | > 10 | < 10 | < 10 |  | 
O=C1C(c2ccccc2)Cc2cnc(Nc3ccccc3)nc2N1c1ccccc1 (stereo not drawn) [Example 5c, 6,8-Diphenyl-2-phenylamino-5,8-dihydro-6H-pyrido[2,3-d]pyrimidin-7-one] | < 10 | < 10 | < 10 | < 10 |  | 
Cc1ccccc1C1Cc2cnc(Nc3ccccc3)nc2N(c2ccccc2)C1=O (stereo not drawn) [Example 4c, 8-Phenyl-2-phenylamino-6-O-tolyl-5,8-dihydro-6H-pyrido[2,3-d]pyrimidin-7-one] | < 10 | < 10 | < 10 | < 10 |  | 
COc1ccc(C2Cc3cnc(Nc4ccccc4)nc3N(CC3CC3)C2=O)cc1 (stereo not drawn) [Example 14b, 8-Cyclopropylmethyl-6-(4-methoxy-phenyl)-2-phenylamino-5,8-dihydro-6H-pyrido[2,3-d]pyrimidine-7-one] | < 10 | < 10 | < 10 | < 10 |  | 
O=C1C(c2cccnc2)Cc2cnc(Nc3ccccc3)nc2N1c1ccccc1 (stereo not drawn) [Example 10c, 8-Phenyl-2-phenylamino-6-pyridin-3-yl-5,8-dihydro-6H-pyrido[2,3-d]pyrimidin-7-one] | < 10 | < 10 | < 10 | < 10 |  | 
COc1ccc(C2Cc3cnc(Nc4ccccc4)nc3N(CC(C)C)C2=O)cc1 (stereo not drawn) [Example 13b, 8-Isobutyl-6-(4-methoxy-phenyl)-2-phenylamino-5,8-dihydro-6H-pyrido[2,3-d]pyrimidine-7-one] | < 10 | < 10 | < 10 | < 10 |  | 
O=C1C(c2cc(C(F)(F)F)cc(C(F)(F)F)c2)Cc2cnc(Nc3ccccc3)nc2N1c1ccccc1 (stereo not drawn) [Example 8d, 6-(3,5-Bis-trifluromethyl-phenyl)-8-phenyl-2-phenylamino-5,8-dihydro-6H-pyrido[2,3-d]pyrimidin-7-one] | > 10 | < 10 | > 10 | > 10 |  | 

Second part, led by results:

IC50 (FGFR) [µM] | IC50 (PDGFR) [µM] | IC50 (EGFR) [µM] | IC50 (KDR) [µM] | SMILES | IC50 [1] [µM] | IC50 [2] [µM]
< 10 | < 10 | > 10 | < 10 | COc1ccc(C2Cc3cnc(Nc4ccccc4)nc3N(c3ccccc3)C2=O)cc1OC (stereo not drawn) [Example 11c, 6-(3,4-Dimethoxy-phenyl)-8-phenyl-2-phenylamino-5,8-dihydro-6H-pyrido[2,3-d]pyrimidin-7-one] |  | 
< 10 | < 10 | < 10 | < 10 | COc1ccc(OC)c(C2Cc3cnc(Nc4ccccc4)nc3N(c3ccccc3)C2=O)c1 (stereo not drawn) [Example 6c, 6-(2,5-Dimethoxy-phenyl)-8-phenyl-2-phenylamino-5,8-dihydro-6H-pyrido[2,3-d]pyrimidin-7-one] |  | 
< 10 | < 10 | < 10 | < 10 | COc1cc(OC)cc(C2Cc3cnc(Nc4ccccc4)nc3N(c3ccccc3)C2=O)c1 (stereo not drawn) [Example 3d, 6-(3,5-Dimethoxy-phenyl)-8-phenyl-2-phenylamino-5,8-dihydro-6H-pyrido[2,3-d]pyrimidin-7-one] | < 10 | < 10
< 10 | < 10 | < 10 | < 10 | COc1ccccc1C1Cc2cnc(Nc3ccccc3)nc2N(c2ccccc2)C1=O (stereo not drawn) [Example 7c, 6-(2-Methoxy-phenyl)-8-phenyl-2-phenylamino-5,8-dihydro-6H-pyrido[2,3-d]pyrimidin-7-one] |  | 
< 10 | < 10 | < 10 | < 10 | COc1ccc(C2Cc3cnc(Nc4ccccc4)nc3N(c3ccccc3)C2=O)cc1 (stereo not drawn) [Example 1f, 6-(4-Methoxy-phenyl)-8-phenyl-2-phenylamino-5,8-dihydro-6H-pyrido[2,3-d]pyrimidin-7-one] |  | 
